Laboratory results as given in patent publication USRE40793E1, “Bicyclic benzamides of 3-or 4-substituted 4-(aminomethyl)-piperidine derivatives” (Janssen Pharmaceutica, N.V., priority 1997, dated 2009).

Test system: conscious dogs
Experiment: Gastric emptying of an acaloric liquid test meal delayed by administration of lidamidine, in conscious dogs
Format: in vivo, beagle dogs
Conditions: conscious dog; for ΔT/T^a (acceleration of gastric emptying of a liquid meal delayed by lidamidine) / change in vivo at 0.01 mg/kg: dose 0.01 mg/kg; for ΔT/T^b (acceleration of gastric emptying of a liquid meal delayed by lidamidine) / change in vivo at 0.0025 mg/kg: dose 0.0025 mg/kg; for change in vivo at 0.0025 mg/kg / change in vivo at 0.01 mg/kg: Canis lupus familiaris; for change in vivo at 0.0025 mg/kg: read-out: ΔT/T^b (acceleration of gastric emptying of a liquid meal delayed by lidamidine); for change in vivo at 0.01 mg/kg: read-out: ΔT/T^a (acceleration of gastric emptying of a liquid meal delayed by lidamidine)
Excerpt: C. Pharmacological Examples C.1. Gastric Emptying of an Acaloric Liquid Test Meal Delayed by Administration of Lidamidine, in Conscious Dogs
Female beagle dogs, weighing 7-14 kg, were trained to stand quietly in Pavlov frames. They were implanted with a gastric cannula under general anesthesia and aseptic precautions. After a medium laparatomy, an incision was made through the gastric wall in the longitudinal direction between the greater and the lesser curve, 2 cm above the nerves of Latarjet. The cannula was secured to the gastric wall by means of a double purse string suture and brought out via a stab wound at the left quadrant of the hypochondrium. Dogs were allowed a recovery period of at least two weeks. Experiments were started after a fasting period of 24 hours, during which water was available ad libitum. At the beginning of the experiment, the cannula was opened in order to remove any gastric juice or food remnants.
The stomach was cleansed with 40 to 50 ml lukewarm water. The test compound was administered I.V. (in a volume ≦3 ml via the vena cephalica), S.C. (in a volume ≦3 ml) or P.O. (in a volume of 1 ml/kg body weight, applied intragastrically via the cannula with a device that filled the lumen of the cannula: after injection of the test compound; 5 ml NaCl 0.9% was injected in order to correct for the dead space in the injection system). Immediately after administration of the test compound or its solvent, lidamidine (0.63 mg/kg was administered subcutaneously. 30 min later, the cannula was opened to determine the amount of fluid present in the stomach, promptly followed by reintroduction of the fluid. Then the test meal was administered via the cannula. This test meal consisted of 250 ml distilled water containing glucose (5 g/l) as a marker. The cannula remained closed for 30 min, whereafter the gastric contents were drained from the stomach to measure total volume (t=30 min). For later analysis 1 ml of the gastric contents was taken, promptly followed by reintroduction of the rest volume into the stomach. This sequence was repeated 4 times with 30 min intervals (t=60, 90, 120, 150 min).
In the 1 ml samples of the gastric contents, the glucose concentrations were measured on a Hitachi 717 automatic analyzer by the hexokinase method (Schmidt, 1961).
Curves were fitted to the measurement points (glucose versus time) using weighed non-linear regression analysis. Gastric emptying was quantified as the time needed to empty 70% of the meal (t 70%). The control emptying time was calculated as the mean t 70% of the last 5 solvent experiments of the same dog. Acceleration of delayed gastric emptying (Δt) was calculated as the time difference between t 70% compound and t 70% solvent. To correct for variations in emptying rate between dogs, Δt was expressed as % of t 70% solvent (Schuurkes et al. 1992)).

[1] = compounds, Δt = t 70% compound minus t 70% solvent, relative to t 70% solvent

Structure (SMILES) | ΔT/T^a (acceleration of gastric emptying of a liquid meal delayed by lidamidine) [1] | ΔT/T^b (acceleration of gastric emptying of a liquid meal delayed by lidamidine) [1] | other results
CCCCN1CC[C@@H](CNC(=O)c2cc(Cl)c(N)c3c2OC(C)(C)C3)[C@H](OC)C1.O=C(O)C(=O)O (relative stereo) [Compound 51] | −0.45 |  | 
COCCCN1CC[C@@H](CNC(=O)c2cc(Cl)c(N)c3c2OC(C)(C)C3)[C@H](O)C1 (relative stereo) [Compound 39, trans-(−)-4-amino-5-chloro-2,3-dihydro-N-[[3-hydroxy-1-(3-methoxypropyl)-4-piperidinyl]methyl]-2,2-dimethyl-7-benzofurancarboxamide] | −0.53 | −0.43 | 
Nc1c(Cl)cc(C(=O)NC[C@@H]2CCN(CCCO)C[C@H]2O)c2c1CCCO2.O.O (relative stereo) [Compound 74] | −0.51 |  | 
COCCCN1CC[C@@H](CNC(=O)c2cc(Cl)c(N)c3c2OC(C)(C)C3)[C@H](O)C1.O=C(O)C(=O)O (racemic) [Compound 37] | −0.62 | −0.41 | 
CCCCN1CC[C@@H](CNC(=O)c2cc(Cl)c(N)c3c2OCCO3)[C@H](O)C1 (relative stereo) [Compound 55, (trans)-8-amino-N-[(1-butyl-3-hydroxy-4-piperidinyl)methyl]-7-chloro-2,3-dihydro-1,4-benzodioxin-5-carboxamide] |  |  | change in vivo at 0.0025 mg/kg [1]: -18%; change in vivo at 0.01 mg/kg [1]: -29%
COCCCN1CC[C@@H](CNC(=O)c2cc(Cl)c(N)c3c2OCC3)[C@H](O)C1 (relative stereo) [Compound 3, trans-4-amino-5-chloro-2,3-dihydro-N-[[3-hydroxy-1-(3-methoxypropyl)-4-piperidinyl]methyl]-7-benzofurancarboxamide] |  |  | change in vivo at 0.0025 mg/kg [1]: -51%; change in vivo at 0.01 mg/kg [1]: -73%
Nc1c(Cl)cc(C(=O)NC[C@@H]2CCN(CCOCCO)C[C@H]2O)c2c1CCO2 (racemic) [Compound 17] | 0.06 | −0.30 | ΔT/T^b (acceleration of gastric emptying of a liquid meal delayed by lidamidine) (intermediates): −0.18; ΔT/T^a (acceleration of gastric emptying of a liquid meal delayed by lidamidine) (intermediates): −0.28
CCCCN1CC[C@@H](CNC(=O)c2cc(Cl)c(N)c3c2OCCCO3)[C@H](O)C1.Cl (relative stereo) [Compound 65] | −0.07 |  | 
CCCCN1CC[C@@H](CNC(=O)c2cc(Cl)c(N)c3c2OCCC3)[C@H](O)C1 (relative stereo) [Compound 78, trans-5-amino-N-[(1-butyl-3-hydroxy-4-piperidinyl)methyl]-6-chloro-3,4-dihydro-2H-1-benzopyran-8-carboxamide] |  |  | change in vivo at 0.0025 mg/kg [1]: -33%; change in vivo at 0.01 mg/kg [1]: -50%
CS(=O)(=O)NCCN1CC[C@@H](CNC(=O)c2cc(Cl)c(N)c3c2OCC3)[C@H](O)C1 (racemic) [Compound 20] | −0.28 | −0.20 | 
CCCCN1CC[C@@H](CNC(=O)c2cc(Cl)c(N)c3c2OCCO3)[C@@H](O)C1.Cl.O (relative stereo) [Compound 54] | −0.28 | 0.04 | 
CCCCN1CC[C@@H](CNC(=O)c2cc(Cl)c(N)c3c2OC(C)(C)C3)[C@H](O)C1 (racemic) [Compound 36] | −0.01 |  | 
CO[C@@H]1CN(CCCC(C)=O)CC[C@H]1CNC(=O)c1cc(Cl)c(N)c2c1OC(C)(C)C2.O=C(O)C(=O)O (relative stereo) [Compound 52] | −0.18 |  | 
CCCCN1CC[C@@H](CNC(=O)c2cc(Cl)c(N)c3c2OCC3)[C@H](OC)C1 (racemic) [Compound 29] | −0.51 | −0.32 | 
CC(=O)CCCN1CC[C@@H](CNC(=O)c2cc(Cl)c(N)c3c2OC(C)(C)C3)[C@H](O)C1 (racemic) [Compound 49] | −0.28 | −0.19 | 
N#CCCCN1CC[C@@H](CNC(=O)c2cc(Cl)c(N)c3c2OCC3)[C@H](O)C1 (racemic) [Compound 18] | −0.57 | −0.47 | 
COCCCN1CC[C@@H](CNC(=O)c2cc(Cl)c(N)c3c2OCCO3)[C@H](O)C1 (relative stereo) [Compound 57] | −0.10 | −0.03 | 
N#CCN1CC[C@@H](CNC(=O)c2cc(Cl)c(N)c3c2OCCC3)[C@H](O)C1 (relative stereo) [Compound 76] | −0.18 |  | 
N#CCCCN1CC[C@@H](CNC(=O)c2cc(Cl)c(N)c3c2OCCC3)[C@H](O)C1 (relative stereo) [Compound 77] | −0.18 |  | 
CC(=O)CCCN1CC[C@H](CNC(=O)c2cc(Cl)c(N)c3c2OCC3)[C@H](O)C1 (relative stereo) [Compound 4, (cis)-4-amino-5-chloro-2,3-dihydro-N-[[3-hydroxy-1-(4-oxopentyl)-4-piperidinyl]methyl]-7-benzofurancarboxamide] |  |  | change in vivo at 0.0025 mg/kg [1]: -21%; change in vivo at 0.01 mg/kg [1]: -8%
CC(C)OCCCN1CC[C@@H](CNC(=O)c2cc(Cl)c(N)c3c2OC(C)(C)C3)[C@H](O)C1.O=C(O)/C=C\C(=O)O (racemic) [Compound 42] | −0.12 |  | 
CCCCN1CC[C@@H](CNC(=O)c2cc(Cl)c(N)c3c2OCC3)[C@@H](O)C1 (racemic) [Compound 1] | −0.20 | −0.23 | 
CC(=O)CCCN1CC[C@@H](CNC(=O)c2cc(Cl)c(N)c3c2OCCO3)[C@@H](O)C1 (relative stereo) [Compound 58] | 0.09 | −0.20 | 
CC(=O)CCCN1CC[C@@H](CNC(=O)c2cc(Cl)c(N)c3c2OCCO3)[C@H](O)C1.O (relative stereo) [Compound 59] | −0.13 | −0.15 | 
CC(=O)CCCN1CCC(O)(CNC(=O)c2cc(Cl)c(N)c3c2OC(C)(C)C3)CC1 [Compound 93] | −0.03 |  | 
CO[C@@H]1CN(CCCC(C)=O)CC[C@H]1CNC(=O)c1cc(Cl)c(N)c2c1OCC2 (relative stereo) [Compound 28, trans-4-amino-5-chloro-2,3-dihydro-N-[[3-methoxy-1-(4-oxopentyl)-4-piperidinyl]methyl]-7-benzofurancarboxamide] |  |  | change in vivo at 0.0025 mg/kg [1]: -42%; change in vivo at 0.01 mg/kg [1]: -56%
CC(=O)CCCN1CC[C@@H](CNC(=O)c2cc(Cl)c(N)c3c2OCCC3)[C@H](O)C1 (relative stereo) [Compound 80] | −0.51 | −0.11 | 
CC(C)OCCCN1CC[C@@H](CNC(=O)c2cc(Cl)c(N)c3c2OCC3)[C@H](O)C1 (racemic) [Compound 19] | −0.78 | −0.30 | 
COCCCN1CC[C@@H](CNC(=O)c2cc(Cl)c(N)c3c2OC(C)(C)C3)[C@H](O)C1 (relative stereo) [Compound 40, trans-(+)-4-amino-5-chloro-2,3-dihydro-N-[[3-hydroxy-1-(3-methoxypropyl)-4-piperidinyl]methyl]-2,2-dimethyl-7-benzofurancarboxamide] | −0.22 | −0.17 | 
